# Test results as given in US20100317671A1, “XANTHINE-BASED CYCLIC GMP-ENHANCING RHO-KINASE INHIBITOR INHIBITS PHYSIOLOGICAL ACTIVITIES OF LUNG EPITHELIAL CELL LINE” (KAOHSIUNG MEDICAL UNIVERSITY, priority 2008, published 2010).
# Where a name gives a salt, the structure may show the parent alone.
# Key:
# MMP-9 [1] = experiment: OVA-induced MMP-9 expression in lung tissue, asthma mice; type: in vivo, BALB/c mice; settings: OVA + drug 5 mM spray, 30 mins/day, days 21 to 27; lung tissue; OVA + vehicle control 100%
# Method: The male BALB/c mice (20-23 g) are injected (i.p.) with OVA (5 mM, 30 mins), sensitized with OVA on day 1 and day 8 via i.p injection and activated by 2 mg aluminum hydroxide to which 2 μg OVA is absorbed. […] The asthmatic animals are divided into 5 groups, wherein the control group is only administered with saline spray and the remaining experimental groups are firstly administered with 1% OVA spray and then administered with the sprays of the related complex salts respectively as shown in Table 4. The inhibition of the expression of OVA-induced MMP-9 in lung tissue of BALB/c mice is measured.
# eNOS = experiment: Short-term nebulization without OVA sensitization, lung tissue; type: in vivo, mice; settings: L-NAME-pretreatment 12 mM, 30 mins
# Method: (§1) Short-term KMUP-1 (5 mM, 30 min) nebulization and pretreatment with L-NAME (12 mM, […]) are accomplished using a previously described method. Aerosols were generated by ultrasonic nebulizer from day 21 to 27. Mice were sacrificed on day 28. Three different experiments were performed on cohorts of 7-14 mice per experimental condition.
# (§2) Please refer to FIGS. 22(B) and 23(B), the changes of eNOS and MMP-9 expression by KMUP-1 (2.5 mM, 30 mins) are reversed by L-NAME-pretreatment (12 mM, 30 mins).
# MMP-9 [2] = experiment: as above; type: in vivo, mice; settings: L-NAME-pretreatment 12 mM, 30 mins
# Method: as §1, §2
# [3] = Monocrotaline (MCT)-induced pulmonary arterial hypertension, PABP; type: in vivo, male Wistar rats; settings: MCT-treated rats; for Pulmonary arterial blood pressure (PABP), in words: 2.5 mg/kg orally every day; for PABP: 2.5 mg/kg/day p.o.
# Method: The rats administered MCT (60 mg/kg) are caused pulmonary artery hypertension on day 21 after the intraperitoneal injection. The KMUP-1HCl salt (2.5 mg/kg), Simvastatin (2.5 mg/kg), KMUP-1-nicotinic acid complex (2.5 mg/kg), KMUP-1-citric acid complex (2.5 mg/kg), KMUP-1-Simvastatinic Acid complex (2.5 mg/kg) and KMUP-1-γ-polyglutamic acid complex (2.5 mg/kg) orally administered, or the KMUP-1-PGI2 complex (0.1 mM) inhaled every day may inhibit the pulmonary arterial blood pressure (PABP) in MCT-treated male Wistar rats.
# TGF-β = TGF-β expression, bleomycin-induced lung fibrosis (EIA); type: in vivo, mice; settings: BM 60 mg/kg
# Method: The increased amount of the collagen synthesis and the macrophage generation in alveolus may facilitate the formulation of TGF-β, and the expression of TGF-β is deeming as a biomarker of the lung fibrosis. KMUP-1HCl salt (1, 2.5 and 5 mg/kg), the Simvastatin (5 mg/kg), the KMUP-1-nicotinic acid complex (2.5 mg/kg), the KMUP-1-Simvastatinic acid complex (2.5 mg/kg) and KMUP-1-γ-polyglutamic acid complex (2.5 mg/kg) are orally administered to the mice for inhibiting the lung fibrosis induced by TGF-β expression in tracheal lavage solution that resulted from 60 mg/kg BM inhalation (Table 6). The state of the TGF-β expression in the lavage is measured by the enzyme immunoassay (EIA).
# [4] = Body weight change, bleomycin-induced IPF mice; type: in vivo
# Method: The six-week old mice are used in this experiment and divided into ten groups as follows. […] The six-week old male C57B1/6 mice are purchased from the National Laboratory Animal Center. […] After being […] pentobarbital in the dose of 0.52 mg/10 g, the mice is kept upright and positioned an otoscope into the larynx for looking into the trachea clearly. The bleomycin is loaded by a loading tip for intratracheal administration.
# collagen = experiment: Collagen amount, bleomycin-induced IPF mice; type: in vivo; settings: day 28 after BLM
# Method: The amount of the collagen in the lung lavage is measured to reflect the fibrosis formation. […] (2) After the lung lavage is obtained, the chest of mice is opened and the lung lobes are cut one by one. […] The 1.5 ml eppendorffs are taken to arrange the calibration curve as follows. […] The eppendorff is then centrifuged at 12,000 rpm for 10 mins. The supernatant in the eppendorff is poured out slowly, 1 ml basic compound is added for dissolving the precipitation. After being violently shaken for 5 mins, the reaction is incubated for 3 hrs to stabilize the color. […] The amount of collagen is estimated through the 540 nm absorption measured by the ELISA reader.
# [5] = tested on: inflammatory cells in the lung lavage; experiment: Inflammatory cells in lung lavage, bleomycin-induced IPF mice; type: in vivo; design: WBC total (white blood cell total count) / NE (neutrophil) / LY (lymphocyte) / MO (monocyte) / EO (eosinophil) / BA (basophil): unit not given here; settings: lung lavage
# Method: The amounts of the total cell, the neutrophill, the lymphocyte, the monocyte, the eosinophill and the basophill are analyzed by an automatic animal blood cell analyzer for evaluating the extent of the inflammation. […] The mice are euthanatized by administering the Urathane in a dose of 37.5 mg/10 g. The larynx is opened, the trachea is picked out, cut and held by a forcepts and a 0.58 mm PE tube is slowly inserted the trachea for infusing 0.5 ml PBS. The PBS is incubated for 15 seconds and then collected after gently massaging the lung tissue. 1 c.c. lung lavage is obtained after the above steps are repeated twice. The lung lavage is collected and transferred into a centrifuged tube for centrifuging at 1,200 rpm at 4° C. for 6 mins. The supernatant is collected and stored at −80° C. for zymography, and the pellet is suspended in PBS for calculating the WBC count. The pellet of the alveolar lavage is suspended in PBS and transferred into an eppendorff. The amount and kind of the inflammatory cell such as WBC total, the lymphocyte, the monocyte, the neutrophil, the eosinophil and the basophil are analyzed by an automatic animal blood cell analyzer.
# inflammatory cells = experiment: H&E stain of lung tissue sections, bleomycin mice; type: in vivo; settings: day 28
# From the text: In the histology observation, the bleomycin-induced mice show the pathology characteristic of lung fibrosis. In the lung tissue sections of the normal control group, the structure of the lung tissue is clear and has no inflammatory cells infiltration, the alveolar wall is complete and not being broaden, the lung atrophy and the vascular wall thickening are not found, and the inflammatory cells infiltration is not found in the bronchial cavity and the alveolar cavity. […] On day 28, the alveolar is dystructured, the macrophage aggregation can be seen in part of aveoli, the fibroblast and fibric cell proliferate, and the fibers are accumulated in the lung interstitium. In the treating group, the inflammatory state is inhibited well on day 7.
# The with 10% formalin treated and freezed lung is placed in a tissue dehydrating machine, and the tissue is fixed, dehydrated, washed and rinsed in turn. The tissue is further prepared as a wax-embedded tissue by a tissue embedded machine through appropriate cooling. The wax-embedded tissue is cut by a sliding microtome. The slices about 4 μm are placed on the slides and extended in 35° C.-50° C. warm water, and then dried in a 56° C.-60° C. extender for staining
# The slices are successively dehydrated via 50%-99.9% ethanol, incubated in xylene for 2 hrs and the incubation step is repeated twice. […]
structure (smiles),measurement,setting,value
CC(=O)N[C@@H](CS)C(=O)O.Cn1c(=O)c2c(ncn2CCN2CCN(c3ccccc3Cl)CC2)n(C)c1=O [KMUP-1-Acetylcysteine],Inhibition % of the MMP-9,MMP-9 [1],68%
Cn1c(=O)c2c(ncn2CCN2CCN(c3ccccc3Cl)CC2)n(C)c1=O.N=C(N)NCCCC(N)C(=O)O [KMUP-1-Arginine],Inhibition % of the MMP-9,MMP-9 [1],65%
"COC(=O)[C@@H](N)CCCNC(=N)N[N+](=O)[O-] [L-NAME, reference compound]","Change of eNOS expression by KMUP-1 (2.5 mM, 30 mins)",eNOS,reversed
same,"Change of MMP-9 expression by KMUP-1 (2.5 mM, 30 mins)",MMP-9 [2],reversed
Cn1c(=O)c2c(ncn2CCN2CCN(c3ccccc3Cl)CC2)n(C)c1=O [KMUP-1 HCl salt],"Pulmonary arterial blood pressure (PABP), in words",[3],inhibit
same,PABP,[3],13 ± 1.7 mmHg
same,The changing amount of TGF-β in the lung tissue,TGF-β; drug 2.5 mg/kg oral,52 ± 5.2%
same,Inhibition % of the MMP-9,MMP-9 [1],55%
"CCC(C)(C)C(=O)O[C@H]1C[C@@H](C)C=C2C=C[C@H](C)[C@H](CC[C@@H]3C[C@@H](O)CC(=O)O3)[C@H]21 [Simvastatin, reference compound]",Body weight,"[4]; Day 7, dose 5 mg/kg",17.9 ± 1.56 g
same,Body weight,"[4]; Day 14, dose 5 mg/kg",19.8 ± 2.31 g
same,Body weight,"[4]; Day 28, dose 5 mg/kg",20.3 ± 1.65 g
same,Body weight,"[4]; Day −3, dose 5 mg/kg",23.5 ± 1.32 g
same,The amount of collagen,collagen; dose 5 mg/kg,140.53 ± 0.05 μg/lung
same,BA (basophil),"[5]; day 7, dose 5 mg/kg",0.22 ± 0.23
same,EO (eosinophil),"[5]; day 7, dose 5 mg/kg",0.46 ± 0.4
same,LY (lymphocyte),"[5]; day 7, dose 5 mg/kg",1.5 ± 2.17
same,MO (monocyte),"[5]; day 7, dose 5 mg/kg",0.13 ± 0.19
same,NE (neutrophil),"[5]; day 7, dose 5 mg/kg",0.76 ± 0.53
same,WBC total (white blood cell total count),"[5]; day 7, dose 5 mg/kg",3.09 ± 2.98
same,BA (basophil),"[5]; day 28, dose 5 mg/kg",0.22 ± 0.22
same,EO (eosinophil),"[5]; day 28, dose 5 mg/kg",0.46 ± 0.35
same,LY (lymphocyte),"[5]; day 28, dose 5 mg/kg",1.5 ± 3.03
same,MO (monocyte),"[5]; day 28, dose 5 mg/kg",0.13 ± 0.26
same,NE (neutrophil),"[5]; day 28, dose 5 mg/kg",0.76 ± 0.61
same,WBC total (white blood cell total count),"[5]; day 28, dose 5 mg/kg",3.09 ± 0.92
same,The changing amount of TGF-β in the lung tissue,TGF-β; drug 5 mg/kg oral,40 ± 4.3%
CC(C)(O)c1ccccc1CCC(SCC1(CC(=O)O)CC1)c1cccc(C=Cc2ccc3ccc(Cl)cc3n2)c1.Cn1c(=O)c2c(ncn2CCN2CCN(c3ccccc3Cl)CC2)n(C)c1=O (stereo not drawn) [KMUP-1-Montelukast],Inhibition % of the MMP-9,MMP-9 [1],70%
Cn1c(=O)c2c(ncn2CCN2CCN(c3ccccc3Cl)CC2)n(C)c1=O.O=C(O)c1cccnc1 [KMUP-1-Nicotinic acid],"Pulmonary arterial blood pressure (PABP), in words",[3],inhibit
same,PABP,[3],12 ± 2.6 mmHg
same,The changing amount of TGF-β in the lung tissue,TGF-β; drug 2.5 mg/kg oral,42 ± 3.8%
"CC[C@H]1OC(=O)[C@H](C)[C@@H](O[C@H]2C[C@@](C)(OC)[C@@H](O)[C@H](C)O2)[C@H](C)[C@@H](O[C@@H]2O[C@H](C)C[C@H](N(C)C)[C@H]2O)[C@](C)(OC)C[C@@H](C)C(=O)[C@H](C)[C@@H](O)[C@]1(C)O [Clarithromycin, reference compound]",Body weight,"[4]; Day 7, dose 10 mg/kg",19.93 ± 3.28 g
same,Body weight,"[4]; Day 14, dose 10 mg/kg",19.17 ± 3.77 g
same,Body weight,"[4]; Day 28, dose 10 mg/kg",24.7 ± 1.21 g
same,Body weight,"[4]; Day −3, dose 10 mg/kg",24.6 ± 1.48 g
same,"Inflammation, H&E stain",inflammatory cells,still has a significant inflammation phenomenon
same,The amount of collagen,collagen; dose 10 mg/kg,86.07 ± 0.02 μg/lung
same,BA (basophil),"[5]; day 7, dose 10 mg/kg",0.02 ± 0.01
same,EO (eosinophil),"[5]; day 7, dose 10 mg/kg",0.07 ± 0.02
same,LY (lymphocyte),"[5]; day 7, dose 10 mg/kg",0.56 ± 0.17
same,MO (monocyte),"[5]; day 7, dose 10 mg/kg",0.05 ± 0.02
same,NE (neutrophil),"[5]; day 7, dose 10 mg/kg",0.2 ± 0.09
same,WBC total (white blood cell total count),"[5]; day 7, dose 10 mg/kg",0.89 ± 0.3
same,BA (basophil),"[5]; day 28, dose 10 mg/kg",0.25 ± 0.16
same,EO (eosinophil),"[5]; day 28, dose 10 mg/kg",0.5 ± 0.33
same,LY (lymphocyte),"[5]; day 28, dose 10 mg/kg",1.64 ± 1.49
same,MO (monocyte),"[5]; day 28, dose 10 mg/kg",0.16 ± 0.16
same,NE (neutrophil),"[5]; day 28, dose 10 mg/kg",0.68 ± 0.57
same,WBC total (white blood cell total count),"[5]; day 28, dose 10 mg/kg",3.23 ± 0.52
